Patent EP0326134A1, “4-Amino-2,3-disubstituted-6,7-dihydro-5H-1-pyridine derivatives, process for their preparation and medicaments containing them” (NAUCHNO-ISSLEDOVATELSKY INSTITUT TEKHNOLOGII I BEZOPASNOSTI …, priority 1988, dated 1989)
Counter-ions that a name gives are not always drawn. Like-named read-outs stand apart in the source and are kept apart here.

Legend:
[1] = target: T1, Acetylcholinesterase menschlicher Erythrozyten (Homo sapiens, UniProt P22303); test: Acetylcholinesterase inhibition, spectrophotometric; type: biochemical; details: Acetylcholinesteraseinhibierung bei menschlichen Erythrozyten IK, (Mol), human erythrocyte enzyme
T1 construct: Acetylcholin-esteraseinhi-bierung bei menschlichen Erythrozyten; from tissue; host or cells: human erythrocytes
T1 sequence (P22303 other isoform, or with tags, fused parts or gaps): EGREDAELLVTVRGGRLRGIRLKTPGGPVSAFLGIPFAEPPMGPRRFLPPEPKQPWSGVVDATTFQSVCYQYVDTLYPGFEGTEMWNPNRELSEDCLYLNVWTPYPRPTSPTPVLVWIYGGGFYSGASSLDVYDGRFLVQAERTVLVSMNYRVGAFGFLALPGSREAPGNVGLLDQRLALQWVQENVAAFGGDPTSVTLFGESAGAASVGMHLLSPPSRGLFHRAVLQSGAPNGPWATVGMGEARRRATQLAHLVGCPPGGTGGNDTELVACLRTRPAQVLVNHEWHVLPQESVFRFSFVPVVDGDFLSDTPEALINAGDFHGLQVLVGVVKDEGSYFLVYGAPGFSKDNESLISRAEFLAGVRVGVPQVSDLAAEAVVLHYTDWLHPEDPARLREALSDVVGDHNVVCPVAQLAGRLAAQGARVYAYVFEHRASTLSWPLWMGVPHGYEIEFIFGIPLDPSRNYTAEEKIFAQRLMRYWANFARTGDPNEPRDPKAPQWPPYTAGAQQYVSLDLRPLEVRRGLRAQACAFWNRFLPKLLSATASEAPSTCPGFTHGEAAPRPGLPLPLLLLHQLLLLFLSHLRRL
Excerpt: Untersucht wurden die Wirkmechanismen der erfindungsgemäßen Verbindungen: • 1. Die Wirkung auf Acetylcholinesterase menschlicher Erythrozyten auf spektrofotometrischem Wege. • 2.

Zahl der Krämpfe = test: Writhing test (intraperitoneal acetic acid); type: in vivo, Mäusen; details: male mice
Excerpt: Die analgetische Wirkung der erfindungsgemäßen Verbindungen wurde an männlichen Mäusen anhand des "Krampf"-Tests (Writhing-Tests) unter intraperitonealer Injizierung von Essigsäure und des Hot-plate-Tests untersucht. Im ersten Falle wurde die analgetische Wirkung der Verbindungen anhand der prozentualen Verringerung der Zahl der Krämpfe ermittelt. Beim zweiten Test wurde die Schwelle der Schmerzempfindlichkeit (Ablecken der Pfoten) bestimmt. Die stärkste analgetische Wirkung der erfindungsgemäßen Verbindungen zeigte sich beim "Krampf"-Test. Dabei übertrafen die Salze der bicyclischen Basen Amyridin, aber nicht alle erfindungsgemäßen Verbindungen waren schwächer als Morphin (s. Tabelle 4).

Orientierungsaktivität = test: Influence on orientation activity; type: in vivo, Mäusen; details: mice
Excerpt: Von Interesse ist der Einfluß der erfindungsgemäßen Verbindungen auf das ZNS und das Verhalten der Tiere. Alle Verbindungen zeigen eine Kombination von stimulierenden und sedativen Eigenschaften und bei höheren Dosen auch eine m-cholinomimetische Wirkung, wobei Tremor, Speichelfluß und Diarrhoe ausgelöst werden.

α2-Adrenorezeptoren = test: Radioligand displacement of 3H-clonidine in cerebral cortex; type: binding, Kaninchens; details: for α2-adrenoblockierende Wirkung: in words, from radioligand studies
Excerpt: (§1) Dies beweisen spezielle Radioligandenuntersuchungen an einzelnen erfindungsgemäßen Verbindungen (s. Tabelle 6).

[2] = system: durch Skopolamin hervorgerufene Amnesie; test: Dark avoidance assay (passive avoidance), scopolamine-induced amnesia; type: in vivo, Mäusen; details: mice, compound s.c. 5 min before learning, Skopolamin i.p. 30 min before
[3] = system: Calciumchlorid-Arrhythmie-Modells; test: Calcium chloride arrhythmia model (250 mg/kg): ventricular fibrillation, survival; type: in vivo, Ratten; details: rats, calcium chloride 250 mg/kg
Excerpt: (§2) Die antiarrhythmische Wirkung der erfindungsgemäßen Verbindungen wurde in zwei Versuchsserien untersucht, und zwar an isolierten Präparaten des rechten Vorhofs von Kaninchen und mit Hilfe des Calciumchlorid-Arrhythmie-Modells an Ratten. In den Versuchen an den isolierten Präparaten des rechten Vorhofs wurden mit Hilfe von Mikroelektroden die Dauer des AP sowie der Refraktärzeit (R) und die maximale Hemmung (e) und der Parameter (e/R) untersucht, durch den die Anfälligkeit des Myokards gegenüber der Entstehung von Arrhythmien gekennzeichnet wird. In den Versuchen an Ratten wurden diesen Calciumchlorid in einer Dosierung von 250 mg/kg injiziert. Registriert wurden das Vorliegen von Kammerflimmern und die Lebensdauer der Tiere. Sämtliche erfindungsgemäßen Verbindungen üben eine mäßige antiarrhythmische Wirkung aus. Sie steigern die Refraktärzeit des Muskels und des AP um 35 bis 145 % und verringern gleichzeitig die Anfälligkeit des Myokards, ausgedrückt durch den Parameter e/R um 10 bis 80 % (s. Tabelle 4). In bezug auf diese Wirkung waren die Salze der bicyclischen Basen wirksamer als Amyridin. Bezüglich des Vermögens, die Tiere vor Kammerflimmern und vor dem Tod nach Verabreichung von 250 mg/kg Calciumchlorid zu schützen, waren diese Verbindungen ebenfalls am stärksten wirksam. Bei Verwendung des Calciumchlorid-Arrhythmie-Modells waren viele erfindungsgemäßen Verbindungen stärker wirksam als das klassische Antiarrhythmikum Chinidin (s. M.D. Ma s kovskij, Lekarstvennye sredstva, Bd. 1, S. 401, Moskau, Medicina, 1984).

[4] = system: isolierten Präparaten des rechten Vorhofs von Kaninchen; test: Antiarrhythmic effect on isolated right atrium preparations (microelectrodes: AP duration, refractory period R, e/R); details: isolated right atrium of rabbit, microelectrodes
Excerpt: as §2

[5] = Acute toxicity, single intraperitoneal injection, probit analysis (LD50); type: in vivo, Mäusen; details: mice, i.p.
Excerpt: Ihre akute Toxizität wurde an Mäusen (einmalige intraperitoneale Injektion) nach der Methode der Probit-Analyse nach Zichtfield, Wilcoxon, t949 untersucht. In Tabelle 2 sind die Parameter der akuten Toxizität (LDso) angegeben, die eine mäßige Toxizität der erfindungsgemäßen Verbindungen belegen.

M-cholinrezeptoren = test: Radioligand displacement of 3H-Propyl-2-aminobenzylat in brain; type: binding, Kaninchens
Excerpt: as §1

Wirkung von Hexenal = test: Influence on the effect of Hexenal; type: in vivo, Mäusen; details: mice
M2-Cholinrezeptoren = target: T2, M2-Cholinrezeptoren (Oryctolagus cuniculus, UniProt G1TBX1); test: Radioligand displacement of 3H-Chinuklidin in heart; type: binding, Kaninchen; details: read-out: Verdrängung des 3H-Chinuklidins im Kaninchenherzen (M2-Cholinrezeptoren); for inhibition at 10 µM: Konzentration 1.10^-5 Mol; for inhibition at 1 µM: Konzentration 1.10^-6 Mol
T2 construct: im Kaninchen-herzen (M2-Cholinre-zeptoren); from tissue; host or cells: rabbit heart
T2 sequence (G1TBX1 1-520): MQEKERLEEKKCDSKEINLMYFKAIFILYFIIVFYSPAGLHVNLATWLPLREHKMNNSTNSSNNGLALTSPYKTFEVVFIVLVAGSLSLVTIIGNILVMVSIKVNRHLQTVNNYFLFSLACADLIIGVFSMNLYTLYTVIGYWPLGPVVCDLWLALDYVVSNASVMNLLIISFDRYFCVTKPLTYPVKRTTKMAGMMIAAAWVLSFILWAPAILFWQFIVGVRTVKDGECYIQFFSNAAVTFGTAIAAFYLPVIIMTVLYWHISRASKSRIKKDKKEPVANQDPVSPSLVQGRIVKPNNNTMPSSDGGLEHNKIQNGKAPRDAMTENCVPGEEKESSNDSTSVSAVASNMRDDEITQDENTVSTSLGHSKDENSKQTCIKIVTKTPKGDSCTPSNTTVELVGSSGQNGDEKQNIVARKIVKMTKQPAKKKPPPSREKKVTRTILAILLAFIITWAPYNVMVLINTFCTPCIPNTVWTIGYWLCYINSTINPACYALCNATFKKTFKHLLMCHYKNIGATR
Excerpt: as §1

[6] = Side effects and CNS/behaviour: tremor (TD50), sedative and m-cholinomimetic effects; type: in vivo
Excerpt: Von Interesse ist der Einfluß der erfindungsgemäßen Verbindungen auf das ZNS und das Verhalten der Tiere.

[7] = system: Nerven-Muskel-Präparat von Mäusen (n.peroneus-m.extensor digitorum longus); test: Neuromuscular transmission in isolated nerve-muscle preparation (EPP, minEPP); details: for Stimulierung der Nerven-Muskelübertragung, in % der Amplitude: EPP: EPP = Endplattenpotential
In short: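 Mouse peroneal nerve–extensor digitorum longus preparation, isolated and perfused with O2/CO2-gassed Lilly solution. EPPs and spontaneous minEPPs were recorded by magnetograph, then analysed by computer for frequency, amplitude and duration.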

Uterus der Ratte = test: Contractile activity of smooth muscle: rat uterus; details: n = 9; for activity at 10 µM / activity at 100 µM: Rattus norvegicus; for activity at 100 µM: Konzentration 1.10^-4 Mol
Excerpt: (§3) In Versuchen an glattmpskulären Organen (Uterus, Samenleiter der Ratte und Krummdarm des Meerschweinchens) wurden die Wirkung der erfindungsgemäßen Verbindungen auf die kontraktile Aktivität der glatten Muskeln und ihre Reaktionen auf den Einfluß von Acetylcholin, Serotonin, Adrenalin und KCI als Agonisten untersucht. Mit Hilfe eines Schreibers wurden die Amplitude und die Dauer der Kontraktion der glatten Muskeln unter Verwendung eines Geräts vom Typ Mechanstron-untersucht.

[8] = system: Na -Durchlässigkeit der Membrane des Ranvier-Schnürringes; test: Na+ permeability of the node of Ranvier membrane, voltage clamp; set-up: species or system Frosches; details: concentration giving 50 % block of ion permeability
Excerpt: (§4) Untersucht wurden die Wirkmechanismen der erfindungsgemäßen Verbindungen: • 1. Die Wirkung auf Acetylcholinesterase menschlicher Erythrozyten auf spektrofotometrischem Wege. • 2. Die Wirkung auf die K - und Na -Durchlässigkeit der Membrane des Ranvier-Schnürringes (s. Fox T.M. et al. "Modification of ionic membrane currrents of Ranvier nodes by UV-radiation under voltage clamp conditions", Experientia, 27, 1289-1290 /1971/ und Arhom P. et al. "Local anesthetics: effects on permeability properties of nodal membrane in myelynated nerve fibres from xenopus". Acta physiol. Scand. 91, 11-21 /1974/) der Nervenfasern des Hüftnervs des Frosches unter Anwendung der Methode der Messung der Membranspannung (Voltage-clampmethode) (s. Derksen H.E. "Axon membrane voltage fluctuations", Acta Physiol., Pharmacol Neer, 13, 373-466 /1965/).
(§5) Alle erfindungsgemäßen Verbindungen sind Blocker für die K^+-Durchlässigkeit der Membrane analog dem Amyridin. Die Salze der bicyclischen Basen blockieren jedoch stärker die Na -Durchlässigkeit der Membrane, was sich mit ihren sedativen und analgetischen Eigenschaften in Verbindung bringen läßt.

[9] = system: K -Durchlässigkeit der Membrane des Ranvier-Schnürringes; test: K+ permeability of the node of Ranvier membrane, voltage clamp; set-up: species or system Frosches; details: concentration giving 50 % block of ion permeability
Excerpt: as §4, §5

Samenleiter der Ratte = test: Contractile activity of smooth muscle: rat vas deferens; details: n = 9
Excerpt: as §3

[10] = Konzentration 1.10^-5 Mol, 10 µM
[11] = Konzentration 1.10^-6 Mol, 1 µM
[12] = Uterus der Ratte, Konzentration 1.10^-5 Mol
[13] = mouse, in vivo, ip, read-out: LD50
[14] = in vivo, toxic dose causing tremor in 50 % of the animals

Row | SMILES | Ki [1] | Verdrängung des 3H-Clonidins in der Hirnrinde des Kaninchens (α2-Adrenorezeptoren) (α2-Adrenorezeptoren; [10]) | Verdrängung des 3H-Clonidins in der Hirnrinde des Kaninchens (α2-Adrenorezeptoren) (α2-Adrenorezeptoren; [11]) | α2-adrenoblockierende Wirkung (α2-Adrenorezeptoren) | Einfluß auf das Gedächtnis: Zahl der Tiere in %, bei denen die Skopolaminwirkung aufgehoben wurde [2] | Verdrängung des 3H-Propyl-2-aminobenzylats im Gehirn des Kaninchens (M-cholinrezeptoren) (M-cholinrezeptoren; [10]) | Verdrängung des 3H-Propyl-2-aminobenzylats im Gehirn des Kaninchens (M-cholinrezeptoren) (M-cholinrezeptoren; [11]) | inhibition at 10 µM (M2-Cholinrezeptoren) | inhibition at 1 µM (M2-Cholinrezeptoren) | Stimulierung der Nerven-Muskelübertragung, in % der Amplitude: EPP [7] | Stimulierung der Nerven-Muskelübertragung, in % der Amplitude: minEPP [7] | Serotonin 1.10^-6 (Mol): Dauer, Min. (Uterus der Ratte; [12]) | LD50 [5, 13] | TD50 [6, 14] | further results
1 | Cc1nc2c(c(N)c1C)CCC2 [Verbindung 1, 4-Amino-2,3-dimethyl-6,7-dihydro-5H-1-pyrindinhydrochlorid] | 1.07 µM | 26 | 0 | α2-adrenoblockierende Wirkung zeigt | 70% | 28 | 0 | 0% | 0% | 50% | 90% | – | – | – | Analgetische Wirkung: Abnahme d. Zahl der "Krämpfe" bei Mäusen, in % (Zahl der Krämpfe): 60%; Änderung der Orientierungsaktivität, in % (Orientierungsaktivität): -25%; Antiarrhythmische Wirkung: Verlängerung d. Lebensdauer von Ratten an Hand des CaCl2-Arrhythmie-Modells, in % [3]: 150%; Antiarrhythmische Wirkung: Verlängerung d. Refraktärzeit (R), in % [4]: 120%; LD50 [5]: 15 mg/kg; Änderung der Dauer der Seitenlage, in %: Hexenal 60 mg/kg (Wirkung von Hexenal): +28%; Verhältnis TD50 zu ED50 ([6]; ED50 = dose blocking the effect of Skopolamin in 50 % of the animals (passive avoidance, mice)): 15; TD50 (Tremor) ([6]; toxic dose causing tremor in 50 % of the animals): 6 mg/kg
2 | Nc1c2c(nc3c1CCC3)CCCCC2 [Verbindung 38] | 0.48 µM | – | – | – | 70% | – | – | – | – | 28% | 52% | 25±0.8 Min. | 49 mg/kg | 17 mg/kg | activity at 10 µM (Uterus der Ratte; Uterus der Ratte (as head prints), Konzentration 1.10^-5 Mol, ditto mark -"- repeats unverändert, read-out: Acetylcholin 1.10^-6 (Mol): Amplidude, % bezogen auf d. Kontrolle): 125%; activity at 10 µM (Uterus der Ratte; Uterus der Ratte, Konzentration 1.10^-5 Mol, read-out: Serotonin 1.10^-6 (Mol): Amplitude, % bezogen auf die Kontrolle): 180%; Acetylcholin 1.10^-6 (Mol): Dauer, Min. (Uterus der Ratte; Uterus der Ratte (as head prints), Konzentration 1.10^-5 Mol): 20±0.6 Min.; IC50 ([8]; node of Ranvier, frog sciatic nerve fibres, voltage clamp, read-out: Blockierung der Na^+-Durchlässigkeit der Membrane Ic50 (Mol)): 4500 µM; IC50 ([9]; node of Ranvier, frog sciatic nerve fibres, voltage clamp, read-out: Blockierung der K^+-Durchlässigkeit der Membrane Ic50 (Mol)): 580 µM; selectivity ratio ([6]; in vivo, ED50 = dose blocking the effect of Skopolamin in 50 % of the animals (passive avoidance, mice), read-out: Verhältnis TD50 zu ED50): 7.6; activity at 10 µM (Samenleiter der Ratte; Rattus norvegicus, Samenleiter der Ratte, Konzentration 1.10^-5 Mol, read-out: Adrenalin 1.10^-6: Amplitude, % bezogen auf d.Kontrolle): 145%
3 | Nc1c2c(nc3ccccc13)CCCC2 [Verbindung 41, 2,3,4,5-Tetrahydro-9-amino-acridin, reference compound] | – | 27 | 0 | in demselben Maße | – | 0 | 0 | 50% | 10% | 22% | 40% | 5±0.5 Min. | 30 mg/kg | 10 mg/kg | activity at 100 µM (Uterus der Ratte; read-out: Acetylcholin 1.10^-6 (Mol): Amplidude, % bezogen auf d. Kontrolle, Uterus der Ratte (as head prints), ditto mark -"- repeats unverändert): 26%; activity at 10 µM (Uterus der Ratte; read-out: Acetylcholin 1.10^-6 (Mol): Amplidude, % bezogen auf d. Kontrolle, Uterus der Ratte (as head prints), Konzentration 1.10^-5 Mol, ditto mark -"- repeats unverändert): 100%; activity at 100 µM (Uterus der Ratte; read-out: Serotonin 1.10^-6 (Mol): Amplitude, % bezogen auf die Kontrolle, Uterus der Ratte): 0%; activity at 10 µM (Uterus der Ratte; read-out: Serotonin 1.10^-6 (Mol): Amplitude, % bezogen auf die Kontrolle, Uterus der Ratte, Konzentration 1.10^-5 Mol): 164%; IC50 ([8]; read-out: Blockierung der Na^+-Durchlässigkeit der Membrane Ic50 (Mol), node of Ranvier, frog sciatic nerve fibres, voltage clamp): 15 µM; IC50 ([9]; read-out: Blockierung der K^+-Durchlässigkeit der Membrane Ic50 (Mol), node of Ranvier, frog sciatic nerve fibres, voltage clamp): 800 µM; activity at 100 µM (Samenleiter der Ratte; Rattus norvegicus, read-out: Adrenalin 1.10^-6: Amplitude, % bezogen auf d.Kontrolle, Samenleiter der Ratte, Konzentration 1.10^-4 Mol): 35%; activity at 10 µM (Samenleiter der Ratte; Rattus norvegicus, read-out: Adrenalin 1.10^-6: Amplitude, % bezogen auf d.Kontrolle, Samenleiter der Ratte, Konzentration 1.10^-5 Mol): 120%; Adrenalin 1.10^-6: Dauer, Min. (Samenleiter der Ratte; Samenleiter der Ratte, Konzentration 1.10^-4 Mol): 2±0.2 Min.; Adrenalin 1.10^-6: Dauer, Min. (Samenleiter der Ratte; Samenleiter der Ratte, Konzentration 1.10^-5 Mol): 2±0.06 Min.
